Test system: P. aeruginosa (ATCC 19660)
Assay: Antibiotic susceptibility (MIC, Microscan® MIC Plus Type 2 panel) with rBPI21/P123 and EDTA
Type: cell-based
Set-up: key to susceptibility interpretation of MIC (superscript): R: resistant; I: intermediate; S: susceptible
Settings: for effect of EDTA added to the rBPI21/P123 formulation on susceptibility of the strain to the antibiotic: summary of Table 17
Experimental: In additional experiments, a BPI protein product, rBPI21, was formulated with an anti-bacterial activity enhancing poloxamer, specifically PLURONIC P123, and with various concentrations of EDTA, and was evaluated for its effect on the antibiotic susceptibility of a Pseudomonas aeruginosa (ATCC 19660). Antibiotic susceptibility was determined using Microscan® panel plates (Dade Microscan, West Sacramento, Calif.) that allow simultaneous determination of minimum inhibitory concentrations for a number of different antibiotics.
The antimicrobial susceptibility tests performed on the Microscan® panel plates are miniaturizations of the broth dilution susceptibility test. Antimicrobial agents are serially diluted in Mueller-Hinton broth (supplemented with calcium and magnesium, or with sodium chloride for oxacillin, or with thymidine phosphorylase for trimethoprim, sulfamethoxazole and trimethoprim/ sulfamethoxazole) to concentrations bridging the range of clinical interest. One well on the 96-well Microscan® plate is a growth control well that contains dehydrated broth only. The remaining wells contain dehydrated broth and antibiotic (or broth and biochemical reagent indicator), which is rehydrated to the desired concentration by inoculation of a standardized suspension of test organism. The chromogenic biochemical agent indicators are used to identify and characterize the species of bacteria based on detection of pH changes and substrate utilization. […] Gram-negative and gram positive organisms may be tested using any of the Microscan® panel plates (Microscan®, Dade Microscan, West Sacramento, Calif.). In these experiments with P. aeruginosa, the MIC Plus Type 2 panel plates were used. The concentrations of antibiotics tested in this panel plate are shown below in Table 16. The antibiotic susceptibility standards (interpretation of an MIC as resistant, intermediate or susceptible according to Microscan®'s NCCLS-derived standards) applicable to the gram-negative organisms that may be tested in each panel plate appear below in Table 16A.
For these experiments with P. aeruginosa, the following procedure was performed: The organism was streaked onto TSA plates (Remel, Lenexa, Kans.) and incubated for 18-24 hours overnight. Well-isolated A, colonies from the plates were emulsified in 3 ml of sterile Inoculum Water d(catalog no. B1015-2, MicrosScan® system, Dade Microscan, West Sacramento, Calif.) to a final turbidity equivalent to 0.5 McFarland Barium Sulfate standard. This cell suspension was vortexed for 2 to 3 seconds and 100 μl was transferred to glass tubes containing 25 ml of Inoculum Water with Pluronic-D (catalog no. B1015-7, MicroScan® system, Dade Microscan, West Sacramento, Calif.) (hereinafter “Pluronic Inoculum Water”), or 25 ml of Pluronic Inoculum Water into which rBPI21 in 0.2% PLURONIC P123, 0.002% TWEEN 80, 5mM sodium citrate, 150 mM NaCl (“rBPI21/P123”) had been diluted to 64 μg/ml rBPI21.
The 25 ml of this inoculum containing rBPI21 was mixed by inversion and poured into a tray. The inoculum was drawn up into a manual 96-well pipetting system (RENOK^− rehydrator-inoculator system, Dade Microscan, West Sacramento, Calif.) designed for use with the Microscan® panel plates, and 110 μl of the inoculum was delivered to each well of a Microscan® MIC Plus Type 2 panel plate. When added to the wells, this inoculum achieves a final bacterial concentration of 4×10^5 to 7×10^5 CFU/ml. The panel plates were then incubated at 35° C. for 15-24 hours and read visually for cell growth.
No growth was defined as a slight whiteness in the well or a clear broth. Growth appeared as turbidity which could take the form of a white haze throughout the well, a white button in the center of the well, or a fine granule growth throughout the well. All wells were read against a black indirectly lighted background. Visual results of the biochemical reactions were read into a database for bacterial identification.

[1] = rBPI21/P123 at 64 μg/ml rBPI21, With 0% EDTA
[2] = rBPI21/P123 at 64 μg/ml rBPI21, With 0.01% EDTA
[3] = rBPI21/P123 at 64 μg/ml rBPI21, With 0.05% EDTA
[4] = rBPI21/P123 at 64 μg/ml rBPI21, With 0.1% EDTA

Row | Compound | Minimum Inhibitory Concentration of Antibiotic (Control (No BPI21)) | susceptibility interpretation of MIC (superscript) (Control (No BPI21)) | Minimum Inhibitory Concentration of Antibiotic [1] | susceptibility interpretation of MIC (superscript) [1] | Minimum Inhibitory Concentration of Antibiotic [2] | susceptibility interpretation of MIC (superscript) [2] | Minimum Inhibitory Concentration of Antibiotic [3] | susceptibility interpretation of MIC (superscript) [3] | Minimum Inhibitory Concentration of Antibiotic [4] | susceptibility interpretation of MIC (superscript) [4] | effect of EDTA added to the rBPI21/P123 formulation on susceptibility of the strain to the antibiotic
1 | CCN[C@@H]1C[C@H](N)[C@@H](O[C@H]2OC(CN)=CC[C@H]2N)[C@H](O)[C@H]1O[C@H]1OC[C@](C)(O)[C@H](NC)[C@H]1O [Netilmicin] | 4 µg/mL | S | < 2 µg/mL | S | < 2 µg/mL | S | < 2 µg/mL | S | < 2 µg/mL | S | 
2 | CC1(C)S[C@@H]2[C@H](NC(=O)[C@H](NC(=O)N3CCNC3=O)c3ccccc3)C(=O)N2[C@H]1C(=O)O [Azlocillin] | < 64 µg/mL | S | < 64 µg/mL | S | < 64 µg/mL | S | < 64 µg/mL | S | < 64 µg/mL | S | 
3 | O=C(O)C1=C(CSc2nnnn2CS(=O)(=O)O)CS[C@@H]2[C@H](NC(=O)[C@H](O)c3ccccc3)C(=O)N12 [Cefonicid] | > 16 µg/mL | R | > 16 µg/mL | R | < 2 µg/mL | S | < 2 µg/mL | S | < 2 µg/mL | S | reversing resistance
4 | C[C@H]1[C@H](NC(=O)/C(=N\OC(C)(C)C(=O)O)c2csc(N)n2)C(=O)N1S(=O)(=O)O [Aztreonam] | 4 µg/mL | S | 4 µg/mL | S | < 1 µg/mL | S | 2 µg/mL | S | < 1 µg/mL | S | increasing the susceptibility
5 | Ampicillin/Sulbactam [Amp/Sulbact] | > 32 µg/mL | R | > 32 µg/mL | R | < 1 µg/mL | S | 16 µg/mL | I | 16 µg/mL | I | reversing resistance
6 | CC1(C)S[C@@H]2[C@H](NC(=O)[C@H](NC(=O)N3CCN(S(C)(=O)=O)C3=O)c3ccccc3)C(=O)N2[C@H]1C(=O)O [Mezlocillin] | < 16 µg/mL | S | < 16 µg/mL | S | < 16 µg/mL | S | < 16 µg/mL | S | < 16 µg/mL | S | 
7 | CC1(C)S[C@@H]2[C@H](NC(=O)C(C(=O)O)c3ccccc3)C(=O)N2[C@H]1C(=O)O (stereo partly shown) [Carbenicillin] | 32 µg/mL | I | < 16 µg/mL | S | < 16 µg/mL | S | < 16 µg/mL | S | < 16 µg/mL | S | 
8 | CC1(C)S[C@@H]2[C@H](NC(=O)[C@H](C(=O)O)c3ccsc3)C(=O)N2[C@H]1C(=O)O [Ticarcillin] | < 16 µg/mL | S | < 16 µg/mL | S | < 16 µg/mL | S | < 16 µg/mL | S | < 16 µg/mL | S | 
9 | CO/N=C(\C(=O)N[C@@H]1C(=O)N2C(C(=O)O)=C(COC(C)=O)CS[C@H]12)c1csc(N)n1 [Cefotaxime] | 32 µg/mL | I | 16 µg/mL | I | 4 µg/mL | S | < 2 µg/mL | S | < 2 µg/mL | S | increasing the susceptibility
10 | C[C@@H](O)[C@H]1C(=O)N2C(C(=O)O)=C(SCCN=CN)C[C@H]12 [Imipenem] | 1 µg/mL | S | 1 µg/mL | S | < 0.5 µg/mL | S | < 0.5 µg/mL | S | < 0.5 µg/mL | S | 
11 | Ticarcillin/K Clavulanate [Ticar/K Clavulanate] | < 16 µg/mL | S | < 16 µg/mL | S | < 16 µg/mL | S | < 16 µg/mL | S | < 16 µg/mL | S | 
12 | CCN1CCN(C(=O)N[C@@H](C(=O)N[C@@H]2C(=O)N3C(C(=O)O)=C(CSc4nnnn4C)CS[C@H]23)c2ccc(O)cc2)C(=O)C1=O [Cefoperazone] | < 4 µg/mL | S | < 4 µg/mL | S | < 4 µg/mL | S | < 4 µg/mL | S | < 4 µg/mL | S | 

Reference: patent US6849598B1, “Therapeutic compositions comprising bactericidal/permeability-increasing (BPI) protein products” (XOMA, priority 1995, dated 2005)
